Assay results as given in patent US7795281B2, “Optically active dihydropyridine derivative” (Daiichi Sankyo Company, Limited, priority 2002, dated 2010).
One block for each molecule: values may come before it.

Key:
[1] = test system: male spontaneously hypertensive rats; assay: Blood pressure lowering action in hypertensive rats; assay type: in vivo, rat
Procedure: Blood Pressure Lowering Action in Hypertensive Rats
Cannulas for measuring blood pressure and administering drug were inserted into the inguinal artery and inguinal vein, respectively, of male spontaneously hypertensive rats age 25 to 29 weeks followed by intravenous administration of a compound under anesthesia and measurement of blood pressure over time for the course of 120 minutes.
The results of comparing the racemic form (20 μg/kg) and R form (10 μg/kg) are shown in Table 2, while the results of comparing the R form (3 μg/kg, 10 μg/kg) and the S form (1000 μg/kg) in a different series of experiments are shown in Table 3.

[2] = biological target: T1, L calcium channel (Sus scrofa, UniProt A0A8W4FNC0); assay: Receptor binding experiment using porcine myocardial microsomes (3H-nitrendipine); conditions: for IC50 / Ki: porcine myocardial microsomes, average of two experiments; for IC50: 3H-nitrendipine 0.1 nM, read-out: IC50 (50% inhibitory concentration of specific binding); for Ki: Ki=IC50/(1+[L]/Kd), read-out: Ki (inhibition constant)
T1 construct: from tissue; host or cells: porcine myocardium (microsome fraction)
Procedure: Receptor Binding Experiment Using Porcine Myocardial Microsomes
Porcine myocardial microsomes were used for the source of the L calcium channel, while ^3H-nitrendipine was used for the ligand of the L calcium channel. The microsomes (0.2 mg protein/ml), ^3H-nitrendipine (0.1 nM) and test drug (racemic form, R form or S form) were allowed to react at room temperature for 30 minutes in HEPES buffer (50 mM, pH 7.4) followed by measurement of the ^3H-nitrendipine that bound to the microsome fraction with a liquid scintillation counter. The count in the presence of 10 μM non-labeled nitrendipine (amount of non-specific binding) was then subtracted to determine the amount of specific binding. The relationship between the concentration and inhibition rate of specific binding was approximated to a logistic curve for each test drug to determine IC50 (50% inhibitory concentration of specific binding). The Ki value (inhibition constant) for each test drug was then determined from the following formula using the Kd (dissociation constant) of nitrendipine as separately determined from a Scatchard plot: Ki=IC50/(1+[L]/Kd) (wherein [L] is the concentration of ^3H-nitrendipine).

T1 sequence (A0A8W4FNC0 1-2067): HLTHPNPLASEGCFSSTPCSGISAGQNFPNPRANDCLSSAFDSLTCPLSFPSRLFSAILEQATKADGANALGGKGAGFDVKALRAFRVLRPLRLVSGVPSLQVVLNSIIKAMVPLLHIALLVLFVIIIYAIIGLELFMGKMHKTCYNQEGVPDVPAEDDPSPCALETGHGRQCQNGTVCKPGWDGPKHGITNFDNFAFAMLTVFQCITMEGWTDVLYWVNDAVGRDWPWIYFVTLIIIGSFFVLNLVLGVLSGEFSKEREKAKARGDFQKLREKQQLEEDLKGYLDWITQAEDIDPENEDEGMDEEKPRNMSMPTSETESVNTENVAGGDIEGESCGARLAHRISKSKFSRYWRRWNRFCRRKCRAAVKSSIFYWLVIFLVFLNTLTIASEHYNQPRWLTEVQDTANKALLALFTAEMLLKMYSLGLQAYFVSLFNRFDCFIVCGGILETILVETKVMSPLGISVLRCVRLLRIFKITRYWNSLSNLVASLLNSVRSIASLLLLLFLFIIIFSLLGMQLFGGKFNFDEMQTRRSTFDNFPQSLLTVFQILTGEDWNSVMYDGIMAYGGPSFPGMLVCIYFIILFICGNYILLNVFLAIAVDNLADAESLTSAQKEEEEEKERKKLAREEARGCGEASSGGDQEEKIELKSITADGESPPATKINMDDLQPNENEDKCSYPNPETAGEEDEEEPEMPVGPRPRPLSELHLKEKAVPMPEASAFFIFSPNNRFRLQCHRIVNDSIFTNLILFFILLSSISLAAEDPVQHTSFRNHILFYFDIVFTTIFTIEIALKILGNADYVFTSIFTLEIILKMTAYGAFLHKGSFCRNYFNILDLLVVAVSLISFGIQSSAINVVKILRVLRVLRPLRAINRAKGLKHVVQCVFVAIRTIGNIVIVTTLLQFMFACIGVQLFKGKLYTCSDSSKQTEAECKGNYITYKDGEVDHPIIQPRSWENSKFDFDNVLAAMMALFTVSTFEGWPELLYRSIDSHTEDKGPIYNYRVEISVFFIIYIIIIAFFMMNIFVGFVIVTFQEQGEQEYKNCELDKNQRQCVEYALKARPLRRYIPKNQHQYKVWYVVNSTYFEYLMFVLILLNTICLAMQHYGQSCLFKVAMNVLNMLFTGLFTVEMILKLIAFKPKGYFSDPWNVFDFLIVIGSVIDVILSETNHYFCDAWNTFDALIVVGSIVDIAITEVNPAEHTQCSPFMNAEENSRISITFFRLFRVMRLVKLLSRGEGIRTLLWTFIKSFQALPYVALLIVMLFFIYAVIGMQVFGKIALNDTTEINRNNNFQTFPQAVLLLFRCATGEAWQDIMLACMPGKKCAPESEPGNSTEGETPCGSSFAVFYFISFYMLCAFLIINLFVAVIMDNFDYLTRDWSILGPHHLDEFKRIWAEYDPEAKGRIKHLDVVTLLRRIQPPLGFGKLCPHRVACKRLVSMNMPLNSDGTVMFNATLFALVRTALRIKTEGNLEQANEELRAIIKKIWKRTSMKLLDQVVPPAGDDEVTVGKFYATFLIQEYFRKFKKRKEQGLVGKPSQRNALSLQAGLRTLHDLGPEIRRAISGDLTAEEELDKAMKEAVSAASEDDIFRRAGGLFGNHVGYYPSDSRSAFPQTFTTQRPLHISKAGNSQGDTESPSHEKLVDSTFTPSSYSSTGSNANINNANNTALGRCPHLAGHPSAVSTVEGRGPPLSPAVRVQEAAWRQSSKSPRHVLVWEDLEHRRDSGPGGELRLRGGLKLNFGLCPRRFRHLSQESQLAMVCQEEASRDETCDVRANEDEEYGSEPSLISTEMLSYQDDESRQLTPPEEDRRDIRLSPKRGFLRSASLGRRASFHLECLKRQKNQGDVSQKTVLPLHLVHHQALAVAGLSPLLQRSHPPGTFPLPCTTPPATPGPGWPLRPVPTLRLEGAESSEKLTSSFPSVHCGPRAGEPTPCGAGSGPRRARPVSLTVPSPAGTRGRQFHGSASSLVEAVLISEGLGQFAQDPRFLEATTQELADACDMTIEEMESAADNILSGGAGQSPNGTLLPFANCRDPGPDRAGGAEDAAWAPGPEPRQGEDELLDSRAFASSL

IC50 [2]: 700 nM
Ki [2]: 460 nM
Compound: CC1=C(C(=O)OC(C)C)[C@H](c2cccc([N+](=O)[O-])c2)C(C(=O)OC2CN(C(c3ccccc3)c3ccccc3)C2)=C(N)N1 [S form, (S)-2-amino-1,4-dihydro-6-methyl-4-(3-nitrophenyl)-3,5-pyridinedicarboxylic acid 3-(1-diphenylmethylazetidin-3-yl) ester 5-isopropyl ester]
Change in blood pressure ([1]; 1000 μg/kg i.v., 0 minutes, Table 3 (different series of experiments), mean ± standard error): 0 ± 0 mmHg
Change in blood pressure ([1]; 1000 μg/kg i.v., 10 minutes, Table 3 (different series of experiments), mean ± standard error): −5 ± 1 mmHg
Change in blood pressure ([1]; 1000 μg/kg i.v., 30 minutes, Table 3 (different series of experiments), mean ± standard error): −18 ± 6 mmHg
Change in blood pressure ([1]; 1000 μg/kg i.v., 60 minutes, Table 3 (different series of experiments), mean ± standard error): −29 ± 10 mmHg
Change in blood pressure ([1]; 1000 μg/kg i.v., 90 minutes, Table 3 (different series of experiments), mean ± standard error): −36 ± 7 mmHg
Change in blood pressure ([1]; 1000 μg/kg i.v., 120 minutes, Table 3 (different series of experiments), mean ± standard error): −35 ± 4 mmHg

IC50 [2]: 3.1 nM
Ki [2]: 2.1 nM
Compound: CC1=C(C(=O)OC(C)C)C(c2cccc([N+](=O)[O-])c2)C(C(=O)OC2CN(C(c3ccccc3)c3ccccc3)C2)=C(N)N1 (racemic) [Racemic form, (±)-2-amino-1,4-dihydro-6-methyl-4-(3-nitrophenyl)-3,5-pyridinedicarboxylic acid 3-(1-diphenylmethylazetidin-3-yl) ester 5-isopropyl ester, reference compound]
Change in blood pressure ([1]; 20 μg/kg i.v., 0 minutes, Table 2, mean ± standard error): 0 ± 0 mmHg
Change in blood pressure ([1]; 20 μg/kg i.v., 10 minutes, Table 2, mean ± standard error): −21 ± 2 mmHg
Change in blood pressure ([1]; 20 μg/kg i.v., 30 minutes, Table 2, mean ± standard error): −35 ± 4 mmHg
Change in blood pressure ([1]; 20 μg/kg i.v., 60 minutes, Table 2, mean ± standard error): −42 ± 6 mmHg
Change in blood pressure ([1]; 20 μg/kg i.v., 90 minutes, Table 2, mean ± standard error): −45 ± 6 mmHg
Change in blood pressure ([1]; 20 μg/kg i.v., 120 minutes, Table 2, mean ± standard error): −48 ± 7 mmHg

L calcium channel inhibitory activity, potency relative to S form ([2]; R form vs S form): roughly 500 times
L calcium channel inhibitory activity, potency relative to racemic form ([2]; R form vs racemic form): more than twice as potent
IC50 [2]: 1.3 nM
Ki [2]: 0.88 nM
Compound: CC1=C(C(=O)OC(C)C)[C@@H](c2cccc([N+](=O)[O-])c2)C(C(=O)OC2CN(C(c3ccccc3)c3ccccc3)C2)=C(N)N1 [R form, (R)-2-amino-1,4-dihydro-6-methyl-4-(3-nitrophenyl)-3,5-pyridinedicarboxylic acid 3-(1-diphenylmethylazetidin-3-yl) ester 5-isopropyl ester]
Change in blood pressure ([1]; 3 μg/kg i.v., 0 minutes, Table 3 (different series of experiments), mean ± standard error): 0 ± 0 mmHg
Change in blood pressure ([1]; 3 μg/kg i.v., 10 minutes, Table 3 (different series of experiments), mean ± standard error): −3 ± 3 mmHg
Change in blood pressure ([1]; 3 μg/kg i.v., 30 minutes, Table 3 (different series of experiments), mean ± standard error): −14 ± 3 mmHg
Change in blood pressure ([1]; 3 μg/kg i.v., 60 minutes, Table 3 (different series of experiments), mean ± standard error): −28 ± 3 mmHg
Change in blood pressure ([1]; 3 μg/kg i.v., 90 minutes, Table 3 (different series of experiments), mean ± standard error): −34 ± 5 mmHg
Change in blood pressure ([1]; 3 μg/kg i.v., 120 minutes, Table 3 (different series of experiments), mean ± standard error): −34 ± 10 mmHg
Change in blood pressure ([1]; 10 μg/kg i.v., 0 minutes, Table 2, mean ± standard error): 0 ± 0 mmHg
Change in blood pressure ([1]; 10 μg/kg i.v., 0 minutes, Table 3 (different series of experiments), mean ± standard error): 0 ± 0 mmHg
Change in blood pressure ([1]; 10 μg/kg i.v., 10 minutes, Table 2, mean ± standard error): −17 ± 4 mmHg
Change in blood pressure ([1]; 10 μg/kg i.v., 10 minutes, Table 3 (different series of experiments), mean ± standard error): −23 ± 5 mmHg
Change in blood pressure ([1]; 10 μg/kg i.v., 30 minutes, Table 2, mean ± standard error): −28 ± 5 mmHg
Change in blood pressure ([1]; 10 μg/kg i.v., 30 minutes, Table 3 (different series of experiments), mean ± standard error): −36 ± 6 mmHg
Change in blood pressure ([1]; 10 μg/kg i.v., 60 minutes, Table 2, mean ± standard error): −43 ± 7 mmHg
Change in blood pressure ([1]; 10 μg/kg i.v., 60 minutes, Table 3 (different series of experiments), mean ± standard error): −49 ± 11 mmHg
Change in blood pressure ([1]; 10 μg/kg i.v., 90 minutes, Table 2, mean ± standard error): −45 ± 7 mmHg
Change in blood pressure ([1]; 10 μg/kg i.v., 90 minutes, Table 3 (different series of experiments), mean ± standard error): −54 ± 8 mmHg
Change in blood pressure ([1]; 10 μg/kg i.v., 120 minutes, Table 2, mean ± standard error): −47 ± 6 mmHg
Change in blood pressure ([1]; 10 μg/kg i.v., 120 minutes, Table 3 (different series of experiments), mean ± standard error): −61 ± 6 mmHg
Blood pressure lowering activity, potency relative to S form ([1]; R form vs S form): roughly 300 times
Blood pressure lowering activity, potency relative to racemic form ([1]; R form vs racemic form): roughly twice as potent
